What was measured:
[1] = Measurement of plasma protein binding by equilibrium dialysis; conditions: 37° C., 5 μM compound
[2] = target: human muscarinic acetylcholine M3 receptor (M3-ACh) (Homo sapiens, UniProt P20309); test: biochemical; format: binding
[3] = pIC50 of comparative compounds containing a cyclohexyl (C6) ring in place of cycloheptyl (C7)
[4] = pIC50 of comparative compounds containing a cyclooctyl (C8) ring in place of cycloheptyl (C7)

Sequence of human muscarinic acetylcholine M3 receptor (M3-ACh) (P20309 whole entry): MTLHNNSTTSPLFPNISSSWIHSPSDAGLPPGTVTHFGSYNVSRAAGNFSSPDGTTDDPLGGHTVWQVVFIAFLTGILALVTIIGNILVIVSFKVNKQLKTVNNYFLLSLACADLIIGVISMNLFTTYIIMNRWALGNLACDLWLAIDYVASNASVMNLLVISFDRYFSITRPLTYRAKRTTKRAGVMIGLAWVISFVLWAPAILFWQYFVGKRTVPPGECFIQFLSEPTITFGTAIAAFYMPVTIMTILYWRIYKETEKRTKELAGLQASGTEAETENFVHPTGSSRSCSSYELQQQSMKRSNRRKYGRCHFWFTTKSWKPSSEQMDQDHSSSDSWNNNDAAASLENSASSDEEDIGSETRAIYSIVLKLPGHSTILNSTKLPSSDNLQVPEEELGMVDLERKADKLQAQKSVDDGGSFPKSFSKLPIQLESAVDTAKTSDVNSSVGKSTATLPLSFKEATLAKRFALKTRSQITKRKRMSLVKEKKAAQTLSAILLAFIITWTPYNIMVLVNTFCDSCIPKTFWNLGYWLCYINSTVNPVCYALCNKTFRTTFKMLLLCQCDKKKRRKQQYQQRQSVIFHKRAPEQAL

SMILES | IC50 ([2]; M3 binding IC50) [nM] | other results
O=C(C[N+]12CCC(CC1)[C@@H](OC(=O)C1(c3ccccc3)CCCCCC1)C2)Nc1cnccn1.[Br-] [Example 16, (3R)-1-[2-Oxo-2-(pyrazin-2-ylamino)ethyl]-3-{[(1-phenylcycloheptyl)carbonyl]oxy}-1-azoniabicyclo[2.2.2]octane Bromide] | < 2 | human plasma protein binding [1]: 94 % bound
O=C(O)C[N+]12CCC(CC1)[C@@H](OC(=O)C1(c3ccccc3)CCCCCC1)C2 [Example 34, (3R)-1-(Carboxymethyl)-3-{[(1-phenylcycloheptyl)carbonyl]oxy}-1-azoniabicyclo[2.2.2]octane Bromide] | > 10 | 
O=C(O[C@H]1C[N+]2(CCc3cccc(Cl)c3)CCC1CC2)C1(c2ccccc2)CCCCCC1 [Example 35, (3R)-1-[2-(3-Chlorophenyl)ethyl]-3-{[(1-phenylcycloheptyl)carbonyl]oxy}-1-azoniabicyclo[2.2.2]octane bromide] | < 2 | 
NC(=O)C[N+]12CCC(CC1)[C@@H](OC(=O)C1(c3ccccc3)CCCCCC1)C2 [Example 36, (3R)-1-(2-Amino-2-oxoethyl)-3-{[(1-phenylcycloheptyl)carbonyl]oxy}-1-azoniabicyclo[2.2.2]octane Bromide] | < 2 | 
O=C(C[N+]12CCC(CC1)[C@@H](OC(=O)C1(c3ccccc3)CCCCCC1)C2)NCCCc1ccccc1 [Example 37, (3R)-1-{2-Oxo-2-[(3-phenylpropyl)amino]ethyl}-3-{[(1-phenylcycloheptyl)carbonyl]oxy}-1-azoniabicyclo[2.2.2]octane Bromide] | 2 to 10 | 
COc1ccc(CC[N+]23CCC(CC2)[C@@H](OC(=O)C2(c4ccccc4)CCCCCC2)C3)cc1Cl [Example 38, (3R)-1-[2-(3-Chloro-4-methoxyphenyl)ethyl]-3-{[(1-phenylcycloheptyl)carbonyl]oxy}-1-azoniabicyclo[2.2.2]octane Bromide] | < 2 | 
Cc1cc(NC(=O)C[N+]23CCC(CC2)[C@@H](OC(=O)C2(c4ccccc4)CCCCCC2)C3)on1 [Example 39, (3R)-1-{2-[(3-Methylisoxazol-5-yl)amino]-2-oxoethyl}-3-{[(1-phenylcycloheptyl)carbonyl]oxy}-1-azoniabicyclo[2.2.2]octane Bromide] | < 2 | 
O=C(C[N+]12CCC(CC1)[C@@H](OC(=O)C1(c3ccccc3)CCCC1)C2)Nc1cnccn1 [compound 3, (3R)-1-[2-Oxo-2-(pyrazin-2-ylamino)ethyl]-3-{[(1-phenylcyclopentyl)carbonyl]oxy}-1-azoniabicyclo[2.2.2]octane Bromide, reference compound] |  | IC50 ([2]; pIC50 of comparative compounds containing a cyclopentyl (C5) ring in place of cycloheptyl (C7)): 0.316 nM
C[N+]12CCC(CC1)[C@@H](OC(=O)C1(c3ccccc3)CCCCC1)C2 [compound 5, (3R)-1-Methyl-3-{[(1-phenylcyclohexyl)carbonyl]oxy}-1-azoniabicyclo[2.2.2]octane Iodide, reference compound] |  | IC50 [2, 3]: 50.1 nM
O=C(C[N+]12CCC(CC1)[C@@H](OC(=O)C1(c3ccccc3)CCCCC1)C2)Nc1cnccn1 [compound 6, (3R)-1-[2-Oxo-2-(pyrazin-2-ylamino)ethyl]-3-{[(1-phenylcyclohexyl)carbonyl]oxy}-1-azoniabicyclo[2.2.2]octane Bromide, reference compound] |  | IC50 [2, 3]: 0.2 nM
C[N+]12CCC(CC1)[C@@H](OC(=O)C1(c3ccccc3)CCCCCCC1)C2 [compound 8, (3R)-1-Methyl-3-{[(1-phenylcyclooctyl)carbonyl]oxy}-1-azoniabicyclo[2.2.2]octane Iodide, reference compound] |  | IC50 [2, 4]: 39.8 nM
O=C(C[N+]12CCC(CC1)[C@@H](OC(=O)C1(c3ccccc3)CCCCCCC1)C2)Nc1cnccn1 [compound 9, (3R)-1-[2-Oxo-2-(pyrazin-2-ylamino)ethyl]-3-{[(1-phenylcyclooctyl)carbonyl]oxy}-1-azoniabicyclo[2.2.2]octane Bromide, reference compound] |  | IC50 [2, 4]: 0.316 nM

— patent US8207193B2 (priority 2006, dated 2012)
